Assay results reported in patent US5981497A, “Utilization of sophorolipids as therapeutically active substances or cosmetic products, in particular for the treatment of the skin” (Institut Francais du Petrole, priority 1995, dated 1999).

Assays:
in vitro = settings: keratinocyte culture
Method: A keratinocyte culture that was placed under conditions that promote the differentiation of cells was selected as a cellular model for the study. The actions of sophorolipids in acid form A, sophorolipids in lactone form B, and lactic acid on the detachment of corneocytes of the selected cellular model were tested in vitro in parallel. In each experiment, the mean difference T60-T0 (corneocytes/ml), as well as the proportion of detached corneocytes, expressed in percentage relative to the negative test (%/TN), were determined.
Cellular viability, measured with the Neutral Red test, is expressed relative to the negative test (%).

[1] = Cytotoxicity on NCTC2544 at 24 hours (neutral red); format: cell-based; settings: human, nctc2544 cells, read-out: Cellular Viability Rate; for viability at 24 h, 50000 µM: 5.10-2M; for viability at 24 h, 5000 µM: 5.10-3M; for viability at 24 h, 500 µM: 5.10-4M; for viability at 24 h, 10000 µM: 10^-2M; for viability at 24 h, 1000 µM: 10^-3M; for viability at 24 h, 100 µM: 10^-4M; for viability at 24 h, 10 µM: 10^-5M
From the text: (§1) Their innocuousness and their activity make it possible to use them in other stages of healing, namely granulation and epithelialization, by modulating their concentration in the formulas of products that are used. This is possible only because of the low cytotoxicity of sophorolipids, as Tables 3A and 3B show. The toxicity of the products of the invention has been evaluated with a viability test with neutral red on two cellular types of the skin, cells L929 and other fibroblasts of the dermis and cells NCTC 2544 and keratinocytes of the epidermis. The results, which are presented in Tables 3A, 3B, correspond to the rates of cellular viability that are expressed in % relative to the negative test.

[2] = test system: keratinocyte culture (detachment of corneocytes); experiment: Desquamating test, detachment of corneocytes in vitro; format: cell-based; settings: for T60-T0 mean difference: p less than 0.001; for activity at 100 µM / activity at 10 µM / activity at 1 µM: Keratinocyte, read-out: %/TN, proportion of detached corneocytes relative to the negative test
From the text: Variation coefficient CV is obtained as follows: [formula]
Actually, the therapeutic applications incidentally involve cosmetic applications.

[3] = target: T1, fibrin clot reconstituted with bovine thrombin and human fibrinogen (Homo sapiens, UniProt P02671+P02675+P02679); experiment: Fibrinolysis in vitro (lysis of fibrin clot); format: biochemical;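 note: values are percent lysis of the fibrin clot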
T1 sequence (P02671 20-644 isoform P02671-2 limits assumed): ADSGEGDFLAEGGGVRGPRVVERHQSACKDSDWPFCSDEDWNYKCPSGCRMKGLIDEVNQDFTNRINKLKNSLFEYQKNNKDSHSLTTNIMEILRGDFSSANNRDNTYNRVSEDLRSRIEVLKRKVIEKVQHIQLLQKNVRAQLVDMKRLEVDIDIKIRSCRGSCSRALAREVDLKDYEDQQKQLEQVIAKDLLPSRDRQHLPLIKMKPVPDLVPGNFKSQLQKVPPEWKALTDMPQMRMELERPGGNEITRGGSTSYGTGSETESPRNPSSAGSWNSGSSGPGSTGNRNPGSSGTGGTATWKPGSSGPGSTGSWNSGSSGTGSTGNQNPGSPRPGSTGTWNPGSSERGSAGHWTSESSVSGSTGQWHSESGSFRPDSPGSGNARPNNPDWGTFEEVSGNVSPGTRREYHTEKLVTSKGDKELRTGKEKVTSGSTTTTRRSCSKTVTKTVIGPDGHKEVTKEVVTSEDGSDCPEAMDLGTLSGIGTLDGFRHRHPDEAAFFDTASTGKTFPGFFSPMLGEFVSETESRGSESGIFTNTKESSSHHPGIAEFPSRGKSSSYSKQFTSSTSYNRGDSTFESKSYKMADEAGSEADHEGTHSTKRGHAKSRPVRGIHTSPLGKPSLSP
T1 sequence (P02675 45-491 limits assumed): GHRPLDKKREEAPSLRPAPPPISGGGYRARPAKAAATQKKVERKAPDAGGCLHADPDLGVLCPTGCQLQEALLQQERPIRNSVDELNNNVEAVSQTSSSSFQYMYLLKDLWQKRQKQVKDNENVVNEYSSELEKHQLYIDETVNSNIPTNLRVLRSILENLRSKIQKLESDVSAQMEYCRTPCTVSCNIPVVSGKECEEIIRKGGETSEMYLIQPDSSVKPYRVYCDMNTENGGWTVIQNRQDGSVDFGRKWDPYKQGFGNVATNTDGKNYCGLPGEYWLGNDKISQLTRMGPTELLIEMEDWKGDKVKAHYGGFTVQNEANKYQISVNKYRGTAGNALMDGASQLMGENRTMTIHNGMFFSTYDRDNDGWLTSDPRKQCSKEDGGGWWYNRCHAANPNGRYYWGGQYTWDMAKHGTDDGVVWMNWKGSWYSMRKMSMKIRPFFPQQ
T1 sequence (P02679 27-437 isoform P02679-2 limits assumed): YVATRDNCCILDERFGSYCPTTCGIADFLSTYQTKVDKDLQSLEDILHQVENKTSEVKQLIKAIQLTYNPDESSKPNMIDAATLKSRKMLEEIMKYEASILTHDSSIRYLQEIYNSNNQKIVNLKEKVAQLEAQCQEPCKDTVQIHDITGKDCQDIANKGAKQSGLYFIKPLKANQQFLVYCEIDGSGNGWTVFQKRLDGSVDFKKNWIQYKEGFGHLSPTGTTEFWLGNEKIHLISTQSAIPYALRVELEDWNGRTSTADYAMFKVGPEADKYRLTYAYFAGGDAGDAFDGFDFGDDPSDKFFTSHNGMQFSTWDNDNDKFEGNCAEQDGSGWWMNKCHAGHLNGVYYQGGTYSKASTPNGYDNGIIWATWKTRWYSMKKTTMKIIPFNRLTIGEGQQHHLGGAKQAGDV
Method: They also act directly on necrotic plaque. […] This lysis was measured from a fibrin clot that was reconstituted with bovine thrombin and human fibrinogen. The clot that is obtained is covered by 0.5 ml of PBS that contains the sample. The modification of the fibrin gel thickness at 4 hours and 24 hours makes it possible to quantify the fibrinolytic activity. This activity will therefore promote fibrinolysis at wounds, making it possible to act on the bedsore spot and to induce better granulation, as well as better organic tissue oxygenation. Moreover, owing to their surfactant property, sophorolipids make the fragments, molecules, soluble and detach the dead cells from the bed of the wound. This last action is more particularly due to their role in desquamation, which will be described below.

[4] = Cytotoxicity on primocultures at 24 hours (neutral red), fibroblasts; format: cell-based; settings: fibroblasts, 24 hours, read-out: Cellular Viability Rate; for viability at 24 h, 1000 µM: 10^-3M; for viability at 24 h, 100 µM: 10^-4M; for viability at 24 h, 10 µM: 10^-5M; for viability at 24 h, 1 µM: 10^-6M
From the text: as §1

[5] = Cytotoxicity on primocultures at 24 hours (neutral red), keratinocytes; format: cell-based; settings: read-out: Cellular Viability Rate; for viability at 24 h, 1000 µM: 10^-3M; for viability at 24 h, 100 µM: 10^-4M; for viability at 24 h, 10 µM: 10^-5M; for viability at 24 h, 1 µM: 10^-6M
From the text: as §1

SMILES | viability at 1 µM (in vitro) [%] | viability at 10 µM (in vitro) [%] | viability at 100 µM (in vitro) [%] | viability at 24 h, 50000 µM [1] [%] | viability at 24 h, 5000 µM [1] [%] | viability at 24 h, 500 µM [1] [%] | viability at 24 h, 10000 µM [1] [%] | viability at 24 h, 1000 µM [1] [%] | viability at 24 h, 100 µM [1] [%] | viability at 24 h, 10 µM [1] [%] | T60-T0 mean difference ([2]; 10^-4M) [corneocytes/ml] | T60-T0 mean difference ([2]; 10^-5M) [corneocytes/ml] | T60-T0 mean difference ([2]; 10^-6M) [corneocytes/ml] | activity at 100 µM ([2]; 10^-4M) [%] | activity at 10 µM ([2]; 10^-5M) [%] | activity at 1 µM ([2]; 10^-6M) [%] | viability at 24 h, 1000 µM [4] [%] | viability at 24 h, 100 µM [4] [%] | viability at 24 h, 10 µM [4] [%] | viability at 24 h, 1 µM [4] [%] | other results
CC(CCCCCC/C=C\CCCCCCCC(=O)O)O[C@@H]1O[C@H](CO)[C@@H](O)[C@H](O)[C@H]1O[C@@H]1O[C@H](CO)[C@@H](O)[C@H](O)[C@H]1O (some centres unmarked) [Sophorolipid in Acid Form] | 99.6 | 99.8 | 98.7 | 6.35 | 8.34 | 99.9 | 7.12 | 100 | 100 | 101 | 2278 | 1944 | 1555 | 195 | 167 | 133 | 85.7 | 98.3 | 98.7 | 99.7 | Lysis of the fibrin clot ([3]; 4 hours, 10% MS): 75 % relative to TN; Lysis of the fibrin clot ([3]; 4 hours, 10-1M): 66 % relative to TN; Lysis of the fibrin clot ([3]; 4 hours, 10^-2M): 5 % relative to TN; Lysis of the fibrin clot ([3]; 4 hours, 10^-3M): 0 % relative to TN; Lysis of the fibrin clot ([3]; 4 hours, 10^-4M): 0 % relative to TN; Lysis of the fibrin clot ([3]; 4 hours, 10^-5M): 0 % relative to TN; Lysis of the fibrin clot ([3]; 24 hours, 10% MS): 90 % relative to TN; Lysis of the fibrin clot ([3]; 24 hours, 10-1M): 80 % relative to TN; Lysis of the fibrin clot ([3]; 24 hours, 10^-2M): 40 % relative to TN; Lysis of the fibrin clot ([3]; 24 hours, 10^-3M): 20 % relative to TN; Lysis of the fibrin clot ([3]; 24 hours, 10^-4M): 5 % relative to TN; Lysis of the fibrin clot ([3]; 24 hours, 10^-5M): 0 % relative to TN; viability at 24 h, 1000 µM [5]: 86.7%; viability at 24 h, 100 µM [5]: 99.3%; viability at 24 h, 10 µM [5]: 99.9%; viability at 24 h, 1 µM [5]: 99.5%
CC1CCCCCC/C=C\CCCCCCCC(=O)O[C@H]2[C@H](O)[C@@H](O)[C@H](O[C@H]3[C@H](O1)O[C@H](CO)[C@@H](O)[C@@H]3O)O[C@@H]2CO (some centres unmarked) [Sophorolipid in Lactone Form] | 98.8 | 101 | 99.1 | 5.86 | 6.44 | 8.7 | 6.49 | 6.17 | 85.2 | 95.5 | 2389 | 1833 | 1528 | 205 | 157 | 131 | 5.96 | 91.2 | 100 | 101 | Lysis of the fibrin clot ([3]; 4 hours, 30% MS): 15 % relative to TN; Lysis of the fibrin clot ([3]; 24 hours, 30% MS): 33 % relative to TN; viability at 24 h, 1000 µM [5]: 6.58%; viability at 24 h, 100 µM [5]: 95.9%; viability at 24 h, 10 µM [5]: 99.6%; viability at 24 h, 1 µM [5]: 99.6%
